Assay results as given in US5916586A, “Personal cleansing system comprising polymeric diamond-mesh bath sponge and liquid cleanser with deodorant composition” (priority 1996, dated 1999).

Columns and labels:
lipoxidase (ECI.13.1.13) = target: T1, lipoxidase (ECI.13.1.13) (Glycine max, UniProt P08170); test: Lipoxidase test: inhibition of oxidation of linoleic acid by lipoxidase; type: biochemical; conditions: test substrate made with 0.5% by weight solution of material in ethanol, borate buffer pH 9.0, increase in OD at 234 nm
T1 sequence (P08170 1-839): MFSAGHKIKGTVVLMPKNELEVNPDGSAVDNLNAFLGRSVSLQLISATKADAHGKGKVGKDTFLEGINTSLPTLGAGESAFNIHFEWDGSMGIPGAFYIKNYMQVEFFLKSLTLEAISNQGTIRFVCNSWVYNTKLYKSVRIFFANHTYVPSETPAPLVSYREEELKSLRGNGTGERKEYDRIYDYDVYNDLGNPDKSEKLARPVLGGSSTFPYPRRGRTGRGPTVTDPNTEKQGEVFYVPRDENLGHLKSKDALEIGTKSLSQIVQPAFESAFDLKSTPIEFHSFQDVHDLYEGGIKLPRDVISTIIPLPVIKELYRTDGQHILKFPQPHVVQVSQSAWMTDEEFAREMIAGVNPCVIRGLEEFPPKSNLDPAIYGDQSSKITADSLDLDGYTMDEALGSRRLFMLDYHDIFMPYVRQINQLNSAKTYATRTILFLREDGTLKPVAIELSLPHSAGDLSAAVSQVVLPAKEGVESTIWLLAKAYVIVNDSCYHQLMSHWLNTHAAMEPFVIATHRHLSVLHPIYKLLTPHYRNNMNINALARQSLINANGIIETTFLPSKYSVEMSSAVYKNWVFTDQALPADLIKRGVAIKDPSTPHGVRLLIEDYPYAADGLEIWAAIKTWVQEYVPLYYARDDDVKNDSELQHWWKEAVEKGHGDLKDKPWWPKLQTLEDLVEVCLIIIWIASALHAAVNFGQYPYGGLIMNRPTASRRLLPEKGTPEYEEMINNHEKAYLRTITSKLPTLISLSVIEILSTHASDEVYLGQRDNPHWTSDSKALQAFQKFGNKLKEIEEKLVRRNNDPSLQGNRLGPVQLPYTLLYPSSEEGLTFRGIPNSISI

[1] = Morpholine test: depression of partial vapor pressure of morpholine beyond Raoult's Law (headspace GC); conditions: morpholine 0.25 g + material 1 g, 37° C., 30 minutes equilibrium, headspace gas chromatography

Compound: COC(=O)c1c(C)cc(O)c(C)c1O [LRG 201]
- LIC (lipoxidase-inhibiting capacity, % inhibition) (lipoxidase (ECI.13.1.13)): 100%
- RVR (Raoult variance ratio) [1]: 1.21
